Read-outs that look alike come from different tables or passages of the source.
Assays:
AREc32 cells [1] = assay: Cytotoxicity (cell confluency) with IncuCyte S3 live cell imaging, MitoOxTox
[2] = test system: mitochondrial membrane potential (MMP) in AREc32 cells; assay: Disruption of mitochondrial membrane potential (m-MPI red/green ratio), MitoOxTox; conditions: for SRcytotoxicity: specificity ratio of MMP effect: IC10 (ImageXpress)/EC10 (eq 4)
AREc32 cells [3] = assay: Cytotoxicity with ImageXpress high-content imaging, MitoOxTox
[4] = test system: Nrf2-mediated oxidative stress response pathway (ARE) in AREc32 cells; assay: cells; conditions: Arec32, 24 h, read-out: Oxidative stress response ECIR1.5 (M)
[5] = cited from earlier work
[6] = 10% reduction in cell viability, AREc32, 24 h exposure
[7] = 10% reduction of MMP, AREc32, 24 h exposure
[8] = logarithm of EC10, AREc32, 24 h exposure
[9] = logarithm of IC10, AREc32, 24 h exposure, Corning plates

Row | Structure (SMILES) | Cytotoxicity Incucyte IC10 (AREc32 cells [1]) [µM] | MMP inhibition EC10 [2] [µM] | MMP inhibition log(EC10 (M)) [2] [M] | Cytotoxicity ImageExpress IC10 (AREc32 cells [3]) [µM] | Cytotoxicity ImageExpress log(IC10 (M)) (AREc32 cells [3]) [M] | Cytotoxicity Incucyte IC10 (AREc32 cells [1]; [6]) [µM] | EC (induction ratio 1.5) [4] [M] | MMP inhibition EC10 [2, 7] [µM] | MMP inhibition log(EC10 (M)) [2, 8] [M] | SRcytotoxicity [2] | Cytotoxicity ImageExpress IC10 (AREc32 cells [3]; [6]) [µM] | Cytotoxicity ImageExpress log(IC10 (M)) (AREc32 cells [3]; [9]) | log Kow [L/L] ([5]; ref Vaes et al. 1997b) | log Kow [L/L] ([5]; experimental, ref PhysPropNCCT)
1 | Cc1cc(O)ccc1Cl [4-Chloro-3-methylphenol] | 111 | 13.5 | -4.87 | 161 | -3.79 |  |  |  |  |  |  |  |  | 
2 | CCCCCc1ccc(O)cc1 [4-Pentylphenol] |  |  |  |  |  | 57.1 | > 0.000385 | 6.16 | -5.21 | 14.2 | 87.6 | -4.06 M | 4.24 | 
3 | CCCCCC[C@H]1C(=O)O[C@H](C)[C@H](NC(=O)c2cccc(NC=O)c2O)C(=O)O[C@@H](C)[C@@H]1OC(=O)CC(C)C [Antimycin A] |  |  |  |  |  | 35.9 | > 0.000129 | 0.000755 | -9.12 |  | 43.4 | -4.36 M |  | 
4 | COc1ccc2cc3[n+](cc2c1OC)CCc1cc2c(cc1-3)OCO2 [Berberine] |  |  |  |  |  | 63.5 | > 0.000135 | 0.0135 | -7.87 | 5365 | 72.4 | -4.14 M |  | 
5 | N#CC(C#N)=NNc1cccc(Cl)c1 [Carbonyl cyanide 3-chlorophenyl-hydrazone] |  |  |  |  |  | 1.28 | > 0.000355 | 0.247 | -6.61 | 9.4 | 2.31 | -5.64 M |  | 3.38
6 | N#CC(C#N)=NNc1ccc(OC(F)(F)F)cc1 [Carbonyl cyanide 4-(trifluoromethoxy)phenylhydrazone] |  |  |  |  |  | 0.824 | > 6.32e-05 | 0.0768 | -7.11 | 22.8 | 1.75 | -5.76 M |  | 3.68
7 | Cc1nn(C)c(Oc2ccccc2)c1C=NOCc1ccc(C(=O)OC(C)(C)C)cc1 [Fenpyroximate] |  |  |  |  |  |  |  | 0.00069 | -9.16 |  |  |  |  | 
8 | CO/N=C(/C1=NOCCO1)c1ccccc1Oc1ncnc(Oc2ccccc2Cl)c1F [Fluoxastrobin] |  |  |  |  |  | 52.1 | > 0.000153 | 6.05 | -5.22 |  | > 153 | no cytotoxicity |  | 
9 | CC1(C)CNC(=NN=C(/C=C/c2ccc(C(F)(F)F)cc2)/C=C/c2ccc(C(F)(F)F)cc2)NC1 [Hydramethylnon] |  |  |  |  |  | 0.878 | > 4.04e-05 | 4.29 | -5.37 |  | 1.11 | -5.96 M |  | 
10 | CCOCCc1ccc(OCCN=c2[nH]cnc(CC)c2Cl)c(C)c1C [Pyrimidifen] |  |  |  |  |  | 55.3 | > 0.000136 | 0.00271 | -8.57 | 20693 | 56.1 | -4.25 M |  | 
11 | Cc1nc(C(F)(F)F)c(C(=O)Nc2c(Br)cc(OC(F)(F)F)cc2Br)s1 [Thifluzamide] |  |  |  |  |  | 11.3 | > 3.16e-05 | 2.92 | -5.53 | 8.0 | 23.4 | -4.63 M |  | 

— paper PMC10993414, “Water Quality Monitoring with the Multiplexed Assay MitoOxTox for Mitochondrial Toxicity, Oxidative Stress Response, and Cytotoxicity in AREc32 Cells” (Environmental Science & Technology, 2024)
